For two compounds, IC50 results are on record in US5712129A, “Rapamycin derivative with antimicrobial, anticancer and immunomodulation activity” (SmithKline Beecham p. l. c., priority 1993, dated 1998).

The test system of this assay is Spleen cells. Kind of assay: Mitogenesis assay for immunosuppressive activity (concanavalin A stimulated spleen cells, 3H-thymidine). Type of assay: cell-based, BDF1 female mice. To be noted: Mus musculus, read-out: Mitogenesis (IC50). How it is done: Spleen cells for BDF1 female mice were established in RPMI with 10% fetal calf serum at 5×10^6 /mL. One hundred […] of this suspension (5×10^5 cells) were dispensed into 96-well round-bottomed microtiter plates (Linbro, Flow Laboratories). Concanavalin A (5 μg/ml) was added as the mitogenic stimulus, and the final volume in the microtiter wells was adjusted to 200 μL with RPMI. Cell cultures were incubated for 72 hours at 37° C. in a 5% CO2 atmosphere and pulsed with 0.5 μCi ^3 H-thymidine (specific activity […]) for the last 18 hours of the 72 hours culture. The cells were harvested on an automated multiple sample harvester and cell-associated radioactivity counted in a Beckman liquid scintillation counter. The results were expressed as the mean values derived from quadruplicate measurements. Cell viability was determined by trypan blue exclusion after 72 hours of incubation. Compounds to be tested were added to the microtiter plates at the appropriate dilutions prior to the addition of cells.

Read-outs that look alike come from different tables or passages of the source.

In general, IC50 refers to the concentration that inhibits the measured activity by half. Take `COC1CC2CCC(C)C(O)(O2)C(=O)C(=O)N2CCCCC2C(=O)OC(C(C)CC2CCC(O)C(O)C2)CC(=O)C(C)C=C(C)C(O)C(OC)C(=O)C(C)CC(C)C=CC=CC=C1C` (centres unmarked) [42-O-demethylrapamycin]: where the note is “Concanavalin A 5 μg/ml, 72 hours at 37° C., 3H-thymidine pulse last 18 hours”, the IC50 was found to be 3 nM.
Consider `CO[C@H]1C[C@@H]2CC[C@@H](C)[C@@](O)(O2)C(=O)C(=O)N2CCCC[C@H]2C(=O)O[C@H]([C@H](C)C[C@@H]2CC[C@@H](O)[C@H](OC)C2)CC(=O)[C@H](C)/C=C(\C)[C@@H](O)[C@@H](OC)C(=O)[C@H](C)C[C@H](C)/C=C/C=C/C=C/1C` [rapamycin], for which the IC50 is 1 ± 1 nM.
